Laboratory results published in patent US7312188B2, “Peptide derivatives having β-secretase inhibitory activity” (priority 2003, dated 2007).
Numbered stars: 1 amine (or outer) side, 2 acyl side, 3 side chain; on linkers, the order of the positions; unused ones are H or OH. Square brackets hold non-standard residues; d marks the D form. Peptide text beside a SMILES is read from it. * marks the point of attachment. ξ: configuration not given here. β3hPhe(2R-OH) = O=C([C@H](O)[C@H](Cc1ccccc1)N[*:1])[*:2]; X3 = CC(C)C[C@H](N[*:1])[C@@H](O)C(=O)[*:2]; Ala(4-thiazolyl) = N[C@@H](Cc1cscn1)C(=O)O; Thz(5,5-Me2) = CC1(C)SCN[C@@H]1C(=O)O; Oxalyl = O=C(C(=O)[*:2])[*:1]; 4Amb = NCc1ccc(C(=O)O)cc1; X1 = O=C(c1ccc(O)c(O)c1)*; 3Abz = Nc1cccc(C(=O)O)c1; 4Abz = Nc1ccc(C(=O)O)cc1; Orn = NCCC[C@H](N)C(=O)O; ξE = NC(CCC(=O)O)C(=O)O; Dap = NC[C@H](N)C(=O)O; X4 = CCOC(=O)C(=O)*

biological target: T1, recombinant human BACE-1 (rhBACE-1) (Homo sapiens, UniProt P56817); experiment: BACE1 inhibitory activity, reverse phase HPLC quantitation of N-terminal fragment of fluorogenic substrate; assay type: biochemical; conditions: 1 μL of inhibitor solution in DMSO (100 μM) in 50 μL reaction; MES buffer pH 5.0; 37° C., 60 minutes
T1 construct: expressed as only an extracellular region (amino acid 1-460 residues) of recombinant human β-secretase; His tag (C); purchased R&D systems (Minneapolis, Minn.); host or cells: murine myeloma cell line NS0
T1 sequence (P56817 22-460 limits assumed): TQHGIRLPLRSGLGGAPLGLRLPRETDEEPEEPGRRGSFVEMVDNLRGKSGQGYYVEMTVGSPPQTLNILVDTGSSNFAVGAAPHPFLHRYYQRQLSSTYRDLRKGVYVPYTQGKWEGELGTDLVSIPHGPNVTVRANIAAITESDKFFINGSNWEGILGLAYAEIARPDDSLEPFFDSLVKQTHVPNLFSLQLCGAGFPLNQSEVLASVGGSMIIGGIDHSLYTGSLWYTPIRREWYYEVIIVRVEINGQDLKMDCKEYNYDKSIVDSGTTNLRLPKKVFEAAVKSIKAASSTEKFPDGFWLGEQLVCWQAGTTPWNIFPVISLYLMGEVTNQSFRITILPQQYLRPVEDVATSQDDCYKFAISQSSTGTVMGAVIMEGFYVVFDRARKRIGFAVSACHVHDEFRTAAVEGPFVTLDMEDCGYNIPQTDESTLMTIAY
Source text: Experiment Regarding Measurement of BACE1 Inhibitory Activity
Enzyme Used in Measurement
As an enzyme having β-secretase activity, recombinant human BACE-1 (rhBACE-1) purchased from R&D systems (Minneapolis, Minn.) was used. rhBACE-1 is expressed as only an extracellular region (amino acid 1-460 residues) of recombinant human β-secretase, with a His tag at its carboxyl terminal in murine myeloma cell line, NS0. Purified secreted rhBACE1 is a mixture of a pro entity (about 75 kDa) and a mature entity (about 72 kDa).
Assessment of Enzyme Inhibitory Activity
Enzyme inhibitory activity of an inhibitor was assessed by quantitating an N-terminal fragment produced aftercleaving the substrate with BACE1 by reverse HPLC using (7-methoxycoumarin-4-yl)acetyl-[…]2,4-dinitrophenyl)-Arg-Arg-NH2 purchased from Peptide Institute (Osaka, Japan) as a substrate for BACE1. To 40 μL of 62.5 mM 2-(N-morpholino)ethansulfonic acid (MES)-CH3COOH—NaOH buffer (pH 5.0), were added 1 μL of a solution of an inhibitor diluted with DMSO (100 μM), 4 μL of rhBACE-1 (6.25 ng/μL), and 5 μL of an aqueous solution (50% DMSO) of 250 μM substrate (7-methoxycoumarin-4-yl)acetyl-[…]2,4-dinitrophenyl)-Arg-Arg-NH2 to initiate an enzyme reaction. After incubation at 37° C. for 60 minutes, 20 μL of 20% trichloroacetic acid was added to stop the reaction. And, inhibition % was calculated by measuring a fluorescent intensity of the N-terminal fragment (Ex, 328 nm; Em, 393 nm) using reverse phase HPLC (linear gradient of MeCN in aqueous TFA; flow rate, 1.0 mL/min).
BACE1 Inhibitory Activity
Enzyme inhibitory activity of an inhibitor was assessed by quantitating a N-terminal fragment produced after cleavage of a substrate with BACE1 by reverse phase HPLC using (7-methoxycoumarin-4-yl)acetyl-[…]2,4-dinitrophenyl)-Arg-Arg-NH2 purchased from Peptide Institute (Osaka, Japan) as a substrate for BACE1. Recombinant human BACE-1 purchased from R&D systems (Minneapolis, Minn.) was used. To 40 μL of 62.5 mM 2-(N-morpholino)ethansulfonic acid (MES)-CH3COOH—NaOH buffer (pH 5.0), were added 1 μL of a solution of an inhibitor diluted with DMSO (100 μM), 4 μL of BACE1 (6.25 ng/μL), and 5 μL of an aqueous solution (50% DMSO) of 250 μM substrate (7-methoxycoumarin-4-yl)acetyl-[…]2,4-dinitrophenyl)-Arg-Arg-NH2 to initiate an enzyme reaction. After incubation at 37° C. for 60 minutes, 20 μL of 20% trichloroacetic acid was added to stop a reaction. Inhibition % was calculated by measuring a fluorescent intensity of the N-terminal fragment (Ex, 328 nm; Em, 393 nm) using reverse phase HPLC (linear gradient of MeCN in aqueous TFA; flow rate, 1.0 mL/min).

Compound | inhibition at 2 µM [%] | inhibition at 100 µM (stock) [%]
CC(C)C[C@H](NC(=O)[C@@H](NC(=O)[C@@H](N)CCC(=O)O)C(C)C)C(=O)N[C@@H](Cc1ccccc1)[C@@H](O)C(=O)N[C@@H](CC(=O)O)C(=O)N[C@@H](C)C(=O)Nc1ccc(C(=O)O)cc1 [Example 93] (H-EVL[β3hPhe(2R-OH)]DA[4Abz]-OH) | 64.8 | –
CC(C)C[C@H](NC(=O)[C@@H](NC(=O)[C@@H](N)CCC(=O)O)C(C)C)C(=O)N[C@@H](Cc1ccccc1)[C@@H](O)C(=O)N[C@@H](CC(=O)O)C(=O)NCc1ccc(C(=O)O)cc1 [Example 103] (H-EVL[β3hPhe(2R-OH)]D[4Amb]-OH) | 54.6 | –
CCOC(=O)C(=O)NC[C@H](N)C(=O)N[C@H](C(=O)N[C@@H](CC(C)C)C(=O)N[C@@H](Cc1ccccc1)[C@@H](O)C(=O)Nc1cc(C(=O)OC)cc(C(=O)OC)c1)C(C)C [Example 104] | 54.4 | –
CC(C)C[C@H](NC(=O)[C@@H](NC(=O)[C@@H](N)CNC(=O)c1nnn[nH]1)C(C)C)C(=O)N[C@@H](Cc1ccccc1)[C@@H](O)C(=O)Nc1cccc(C(N)=O)c1 [Example 124] | 97.3 | –
CC(C)C[C@H](NC(=O)[C@@H](NC(=O)[C@@H](N)CNC(=O)C(=O)O)C(C)C)C(=O)N[C@@H](CC1CCCCC1)[C@@H](O)C(=O)Nc1cccc(C(=O)O)c1 [Example 126] | 98.9 | –
CC(C)C[C@H](NC(=O)[C@@H](NC(=O)[C@@H](N)CNC(=O)c1nnn[nH]1)C(C)C)C(=O)N[C@@H](Cc1ccccc1)[C@@H](O)C(=O)Nc1cc(C(=O)O)cc(C(=O)O)c1 [Example 127] | 100 | –
Cc1c(NC(=O)[C@H](O)[C@H](Cc2ccccc2)NC(=O)[C@H](CC(C)C)NC(=O)[C@@H](NC(=O)[C@@H](N)CCC(=O)O)C(C)C)cccc1C(=O)O [Example 128] | 53.6 | –
COc1cc(NC(=O)[C@H](O)[C@H](Cc2ccccc2)NC(=O)[C@H](CC(C)C)NC(=O)[C@@H](NC(=O)[C@@H](N)CCC(=O)O)C(C)C)cc(OC)c1 [Example 129] | 61 | –
CC(C)C[C@H](NC(=O)[C@@H](NC(=O)[C@@H](N)CCC(=O)O)C(C)C)C(=O)N[C@@H](Cc1ccccc1)[C@@H](O)C(=O)Nc1cccc(O)c1 [Example 130] | 57.2 | –
CSC[C@H](NC(=O)[C@@H](NC(=O)[C@@H](N)CCC(=O)O)C(C)C)C(=O)N[C@@H](Cc1ccccc1)[C@@H](O)C(=O)Nc1cccc(C(=O)O)c1 [Example 131] | 74.1 | –
CCSC[C@H](NC(=O)[C@@H](NC(=O)[C@@H](N)CCC(=O)O)C(C)C)C(=O)N[C@@H](Cc1ccccc1)[C@@H](O)C(=O)Nc1cccc(C(=O)O)c1 [Example 132] | 68.1 | –
CC(C)C[C@H](NC(=O)[C@@H](NC(=O)[C@@H](N)CNC(=O)c1ccc(O)c(O)c1)C(C)C)C(=O)N[C@@H](Cc1ccccc1)[C@@H](O)C(=O)N[C@@H](CC(=O)O)C(=O)N[C@@H](C)C(=O)N[C@@H](CCC(=O)O)C(=O)O [Example 133] (H-[Dap](X1)VL[β3hPhe(2R-OH)]DAE-OH) | – | 71.5
CC(C)[C@H](NC(=O)[C@@H](N)CNC(=O)C(=O)O)C(=O)N[C@@H](CC1CCCCC1)C(=O)N[C@@H](Cc1ccccc1)[C@@H](O)C(=O)Nc1cc(C(=O)O)cc(C(=O)O)c1 [Example 134] | 99.6 | –

Now from value to compound, other results behind:

inhibition at 2 µM [%] | Compound | inhibition at 100 µM (stock) [%]
65.4 | CC(C)C[C@H](NC(=O)[C@@H](NC(=O)[C@@H](N)CCC(=O)O)C(C)C)C(=O)N[C@@H](Cc1ccccc1)[C@@H](O)C(=O)N[C@@H](CC(=O)O)C(=O)N[C@@H](C)C(=O)Nc1cccc(C(=O)O)c1 [Example 92] (H-EVL[β3hPhe(2R-OH)]DA[3Abz]-OH) | –
61.7 | CCOC(=O)C(=O)NC[C@H](N)C(=O)N[C@H](C(=O)N[C@@H](CC(C)C)C(=O)N[C@@H](Cc1ccccc1)[C@@H](O)C(=O)N[C@@H](CC(=O)O)C(=O)N[C@@H](C)C(=O)N[C@@H](CCC(=O)O)C(=O)O)C(C)C [Example 95] (H-[Dap](X4)VL[β3hPhe(2R-OH)]DAE-OH) | –
59.2 | CC(C)C[C@H](NC(=O)[C@@H](NC(=O)[C@@H](N)CCC(=O)O)C(C)C)C(=O)N[C@@H](Cc1ccccc1)[C@@H](O)C(=O)N[C@H](C(=O)N[C@@H](C)C(=O)N[C@@H](CCC(=O)O)C(=O)N[C@@H](Cc1ccccc1)C(=O)O)C(C)C [Example 96] (H-EVL[β3hPhe(2R-OH)]VAEF-OH) | –
59.1 | CC(C)C[C@H](NC(=O)[C@@H](NC(=O)[C@@H](N)CCC(=O)O)C(C)C)C(=O)N[C@@H](CC(C)C)[C@@H](O)C(=O)N[C@@H](CC(=O)O)C(=O)N[C@@H](C)C(=O)N[C@@H](CCC(=O)O)C(=O)N[C@@H](Cc1ccccc1)C(=O)O [Example 97] (H-EVL[X3]DAEF-OH) | –
58.4 | CC(C)C[C@H](NC(=O)[C@@H](NC(=O)[C@@H](N)CCC(=O)O)C(C)C)C(=O)N[C@@H](Cc1ccccc1)[C@@H](O)C(=O)N[C@@H](CC(=O)O)C(=O)N[C@@H](C)C(=O)N[C@@H](CC(=O)O)C(=O)O [Example 98] (H-EVL[β3hPhe(2R-OH)]DAD-OH) | –
58 | CC(C)[C@H](NC(=O)[C@@H](N)CCC(=O)O)C(=O)N[C@@H](Cc1cscn1)C(=O)N[C@@H](Cc1ccccc1)[C@@H](O)C(=O)N[C@@H](CC(=O)O)C(=O)N[C@@H](C)C(=O)N[C@@H](CCC(=O)O)C(=O)N[C@@H](Cc1ccccc1)C(=O)O [Example 99] (H-EV[Ala(4-thiazolyl)][β3hPhe(2R-OH)]DAEF-OH) | –
56.9 | CC(C)C[C@H](NC(=O)[C@@H](NC(=O)[C@@H](N)CCC(=O)O)C(C)C)C(=O)N[C@@H](Cc1ccccc1)[C@@H](O)C(=O)N[C@H](CC(=O)O)C(=O)O [Example 100] (H-EVL[β3hPhe(2R-OH)][dD]-OH) | –
56.1 | CC(C)C[C@H](NC(=O)[C@@H](NC(=O)[C@@H](N)CCCNC(=O)C(=O)O)C(C)C)C(=O)N[C@@H](Cc1ccccc1)[C@@H](O)C(=O)N[C@@H](CC(=O)O)C(=O)N[C@@H](C)C(=O)N[C@@H](CCC(=O)O)C(=O)O [Example 101] (H-[Orn](Oxalyl)VL[β3hPhe(2R-OH)]DAE-OH) | –
53 | CC(C)C[C@H](NC(=O)[C@@H](NC(=O)[C@@H](N)CCC(=O)O)C(C)C)C(=O)N[C@@H](Cc1ccccc1)[C@@H](O)C(=O)N1CSC(C)(C)[C@H]1C(=O)N[C@@H](C)C(=O)NC(CCC(=O)O)C(=O)N[C@@H](Cc1ccccc1)C(=O)O (stereo partly drawn) [Example 106] (H-EVL[β3hPhe(2R-OH)][Thz(5,5-Me2)]A[ξE]F-OH) | –
52.1 | CC(C)C[C@H](NC(=O)[C@@H](NC(=O)[C@@H](N)CCC(=O)O)C(C)C)C(=O)N[C@@H](Cc1ccccc1)[C@@H](O)C(=O)N[C@@H](CC(C)C)C(=O)N[C@@H](C)C(=O)N[C@@H](CCC(=O)O)C(=O)N[C@@H](Cc1ccccc1)C(=O)O [Example 107] (H-EVL[β3hPhe(2R-OH)]LAEF-OH) | –
51.3 | CC(C)C[C@H](NC(=O)[C@@H](NC(=O)[C@@H](N)CCC(=O)O)C(C)C)C(=O)N[C@@H](Cc1ccccc1)[C@@H](O)C(=O)N[C@@H](CC(=O)O)C(=O)N[C@@H](C)C(=O)NCc1ccc(C(=O)O)cc1 [Example 108] (H-EVL[β3hPhe(2R-OH)]DA[4Amb]-OH) | –
61.4 | CC(C)[C@H](NC(=O)[C@@H](NC(=O)[C@@H](N)CCC(=O)O)C(C)C)C(=O)N[C@@H](Cc1ccccc1)[C@@H](O)C(=O)N[C@@H](CC(=O)O)C(=O)N[C@@H](C)C(=O)N[C@@H](CCC(=O)O)C(=O)N[C@@H](Cc1ccccc1)C(=O)O [Example 123] (H-EVV[β3hPhe(2R-OH)]DAEF-OH) | –
